The test deals with T1, human Prostaglandin D Synthase (GST2) (Homo sapiens, UniProt O60760).
T1 construct: the open reading frame of human Prostaglandin D Synthase was amplified from cDNA; made in house; host or cells: E. coli TOP10F'
T1 sequence (O60760 whole entry): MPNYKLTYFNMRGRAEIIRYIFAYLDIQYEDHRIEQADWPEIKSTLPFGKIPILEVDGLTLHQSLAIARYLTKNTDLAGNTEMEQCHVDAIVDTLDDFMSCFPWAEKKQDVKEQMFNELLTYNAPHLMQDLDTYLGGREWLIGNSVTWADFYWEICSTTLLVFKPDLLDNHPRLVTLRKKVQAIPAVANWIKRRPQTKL
Kind of test: Homogeneous biochemical assay of human Prostaglandin D Synthase (GST2) based on its glutathion-S-transferase activity (GSH conjugation to monochlorobimane, fluorescence). As to conditions: given beside the compound name in Examples 1 to 167; read-out: Potency Range (GST2 IC50). An excerpt: Homogeneous, Biochemical Assay Monitoring the Activity of Human Prostaglandin D Synthase Based on the Glutathion-S-Transferase Activity of the Enzyme
Prostaglandin D2 synthesis by Prostaglandin D synthase (GST2) requires transfer of Glutathion (GSH) to the substrate, Prostaglandin H2. […] Since the Prostaglandin D2 synthesis is absolutely dependent on the GST activity of the enzyme, assays monitoring the GST activity should allow to identify specific inhibitors of Prostaglandin D2 synthetic activity. The assay principle used is based on enzymatic conjugation of GSH to Monochlorobimane (MCB), that becomes fluorescent upon this chemical modification. Therefore, the enzymatic reaction can be monitored by total fluorescence measurement.
In brief, the open reading frame of human Prostaglandin D Synthase was amplified from cDNA using the primer pair:
This construct allows prokaryotic expression of Prostaglandin D Synthase as fusion protein with a N-terminal hexa-histidine tag, referred to as NHis-Prostaglandin D Synthase.
Expression of NHis-Prostaglandin D Synthase was in E. coli TOP10F′ (Invitrogen, Germany, cat. no. C3030-03). […] When the culture had reached a density corresponding to an A600 of 0.6, an equal volume of room temperature LB/ampicillin was added. […] Cells harvested by centrifugation were resuspended in 50 mM tris(hydroxymethyl)aminomethane hydrochloride pH 7.5 (Tris/HCl, Sigma, cat. no. T5941).
Removal of unbound material was with 100 ml lysis buffer. Elution was with 50 ml of 50 mM Tris/HCl pH 7.5, 300 mM imidazol (Sigma, Germany, cat. no. I2399)/HCl pH 7.5). […] Aliquots were shock frozen in liquid nitrogen and stored at −80° C.
All assay components were diluted in reaction buffer, 50 mM MES/KOH (pH 6.1), 0.7 mM GSH (Sigma, G4251), 2 mM MgCl2 (Sigma, M2670), 0.05% Pluronic F127 (Sigma, P2443), and stored on ice prior to use. Compounds were diluted in 90% DMSO yielding final assay concentrations from the picomolar to three digit micromolar range.
Total fluorescent measurement was carried out with excitation and emission wavelength of 390 and 460 nm, respectively (BMG Fluostar Optima).
Take `O=C(Nc1ccc(N2CCOCC2)c(F)c1)N1CCN(C(=O)c2cccc(F)c2)CC1` [Compound 41, 4-(3-Fluoro-benzoyl)-piperazine-1-carboxylic acid (3-fluoro-4-morpholin-4-yl-phenyl)-amide]: the 50% inhibitory concentration (IC50) was 11 to 100 nM. With `O=C(c1ccccc1)c1ccc(NC(=O)N2CCN(C(=O)c3cccc(F)c3)CC2)cc1` [Compound 42, 4-(3-Fluoro-benzoyl)-piperazine-1-carboxylic acid (4-benzoyl-phenyl)-amide] the figure was 11 to 100 nM; with `O=C(Nc1ccc(Br)c(-c2ccncc2)c1)N1CCN(C(=O)c2cccc(F)c2)CC1` [Compound 43, 4-(3-Fluoro-benzoyl)-piperazine-1-carboxylic acid (4-bromo-3-pyridin-4-yl-phenyl)-amide], 11 to 100 nM; with `O=C(Nc1ccc(Oc2cccnc2)nc1)N1CCN(C(=O)c2cccc(F)c2)CC1` [Compound 44, 4-(3-Fluoro-benzoyl)-piperazine-1-carboxylic acid [6-(pyridin-3-yloxy)-pyridin-3-yl]-amide], 101 to 1000 nM. As to `O=C(Nc1cnc2ccccc2c1)N1CCN(C(=O)c2cccc(F)c2)CC1` [Compound 45, 4-(3-Fluoro-benzoyl)-piperazine-1-carboxylic acid quinolin-3-ylamide], the 50% inhibitory concentration (IC50) is 101 to 1000 nM. Take `CC(C)(C)OC(=O)N1CCN(c2ccc(NC(=O)N3CCN(C(=O)c4cccc(F)c4)CC3)cc2F)CC1` [Compound 46, 4-(2-Fluoro-4-{[4-(3-fluoro-benzoyl)-piperazine-1-carbonyl]-amino}-phenyl)-piperazine-1-carboxylic acid tert-butyl ester]: the half-inhibitory concentration (IC50) lay in the range of 11 to 100 nM. As to `O=C(Nc1ccc(N2CCOCC2)c(F)c1)N1CCN(C(=O)c2cc(F)ccc2F)CC1` [Compound 47, 4-(2,5-Difluoro-benzoyl)-piperazine-1-carboxylic acid (3-fluoro-4-morpholin-4-yl-phenyl)-amide], the half-inhibitory concentration (IC50) was in the range of 101 to 1000 nM. With `CC(C)(C)OC(=O)N1CCN(c2ccc(NC(=O)N3CCN(C(=O)c4cc(F)ccc4F)CC3)cc2F)CC1` [Compound 48, 4-(4-{[4-(2,5-Difluoro-benzoyl)-piperazine-1-carbonyl]-amino}-2-fluoro-phenyl)-piperazine-1-carboxylic acid tert-butyl ester] the figure was 101 to 1000 nM; with `O=C(Nc1ccc([N+](=O)[O-])cc1)N1CCN(C(=O)c2cc(F)ccc2F)CC1` [Compound 49, 4-(2,5-Difluoro-benzoyl)-piperazine-1-carboxylic acid (4-nitro-phenyl)-amide], 101 to 1000 nM.

For the compound `CCCCNC(=O)N1CCN(c2ccc(NC(=O)N3CCN(C(=O)c4cccc(F)c4)CC3)cc2F)CC1` [Compound 53], the IC50 lay within 11 to 100 nM. Turning to `O=C(Nc1ccc(N2CCN(C(=O)NC3CCCC3)CC2)c(F)c1)N1CCN(C(=O)c2cccc(F)c2)CC1` [Compound 54, N-{4-[4-(cyclopentylcarbamoyl)piperazin-1-yl]-3-fluorophenyl}-4-(3-fluorobenzoyl)piperazine-1-carboxamide], the IC50 lay in the range of 11 to 100 nM. In the case of `CC(C)NC(=O)N1CCN(c2ccc(NC(=O)N3CCN(C(=O)c4cc(F)ccc4F)CC3)cc2F)CC1` [Compound 55, 4-(2,5-difluorobenzoyl)-N-{3-fluoro-4-[4-(isopropylcarbamoyl)piperazin-1-yl]phenyl}piperazine-1-carboxamide], the concentration for half-maximal inhibition (IC50) was 101 to 1000 nM. For the compound `CC(C)(C)C(=O)N1CCN(c2ccc(NC(=O)N3CCN(C(=O)c4cccc(F)c4)CC3)cc2F)CC1` [Compound 56, 4-(3-Fluoro-benzoyl)-piperazine-1-carboxylic acid {4-[4-(2,2-dimethyl-propionyl)-piperazin-1-yl]-3-fluoro-phenyl}-amide], the half-maximal inhibitory concentration (IC50) fell in the range of 11 to 100 nM. Regarding `CC(C)C(=O)N1CCN(c2ccc(NC(=O)N3CCN(C(=O)c4cccc(F)c4)CC3)cc2F)CC1` [Compound 57, 4-(3-Fluoro-benzoyl)-piperazine-1-carboxylic acid [3-fluoro-4-(4-isobutyryl-piperazin-1-yl)-phenyl]-amide], the IC50 was in the range of 11 to 100 nM. Regarding `CC(C)C(=O)N1CCN(c2ccc(NC(=O)N3CCN(C(=O)c4cc(F)ccc4F)CC3)cc2F)CC1` [Compound 58, 4-(2,5-Difluoro-benzoyl)-piperazine-1-carboxylic acid [3-fluoro-4-(4-isobutyryl-piperazin-1-yl)-phenyl]-amide], the half-inhibitory concentration (IC50) lay in the range of 101 to 1000 nM.

Turning to `CC(=O)N1CCN(c2ccc(NC(=O)N3CCN(C(=O)c4cccc(F)c4)CC3)cc2)CC1` [Compound 61], the IC50 lay within 101 to 1000 nM. With `Cc1cc(NC(=O)N2CCN(C(=O)c3cccc(F)c3)CC2)no1` [Compound 62, 4-(3-Fluoro-benzoyl)-piperazine-1-carboxylic acid (5-methyl-isoxazol-3-yl)-amide] the figure was 101 to 1000 nM; with `O=C(Nc1nc2ccccc2[nH]1)N1CCN(C(=O)c2cccc(F)c2)CC1` [Compound 64, 4-(3-Fluoro-benzoyl)-piperazine-1-carboxylic acid (1H-benzoimidazol-2-yl)-amide], 101 to 1000 nM.

Consider `O=C(Nc1nc2ccccc2s1)N1CCN(C(=O)c2cccc(F)c2)CC1` [Compound 65, 4-(3-Fluoro-benzoyl)-piperazine-1-carboxylic acid benzothiazol-2-ylamide], for which the half-maximal inhibitory concentration (IC50) lay within 11 to 100 nM. Turning to `O=C(Nc1nc2ccc(F)cc2s1)N1CCN(C(=O)c2cccc(F)c2)CC1` [Compound 66, 4-(3-Fluoro-benzoyl)-piperazine-1-carboxylic acid (6-fluoro-benzothiazol-2-yl)-amide], the IC50 fell in the range of 11 to 100 nM. Turning to `O=C(Nc1nc2ccc(OC(F)(F)F)cc2s1)N1CCN(C(=O)c2cccc(F)c2)CC1` [Compound 67, 4-(3-Fluoro-benzoyl)-piperazine-1-carboxylic acid (6-trifluoromethoxy-benzothiazol-2-yl)-amide], the concentration for half-maximal inhibition (IC50) fell in the range of 11 to 100 nM.

As for `O=C(Nc1nc2ccc(Br)cc2s1)N1CCN(C(=O)c2cccc(F)c2)CC1` [Compound 68, 4-(3-Fluoro-benzoyl)-piperazine-1-carboxylic acid (6-bromo-benzothiazol-2-yl)-amide], the IC50 was 1 to 10 nM. For `O=C(Nc1nc(-c2ccccc2)ns1)N1CCN(C(=O)c2cccc(F)c2)CC1` [Compound 70, 4-(3-Fluoro-benzoyl)-piperazine-1-carboxylic acid (3-phenyl-[1,2,4]thiadiazol-5-yl)-amide], the 50% inhibitory concentration (IC50) fell in the range of 11 to 100 nM.

Regarding `O=C(Nc1nnc(-c2ccncc2)s1)N1CCN(C(=O)c2cccc(F)c2)CC1` [Compound 71, 4-(3-Fluoro-benzoyl)-piperazine-1-carboxylic acid (5-pyridin-4-yl[1,3,4]thiadiazol-2-yl)-amide], the half-inhibitory concentration (IC50) was in the range of 11 to 100 nM. With `O=C(Nc1nnc(-c2ccccc2)o1)N1CCN(C(=O)c2cccc(F)c2)CC1` [Compound 72, 4-(3-Fluoro-benzoyl)-piperazine-1-carboxylic acid (5-phenyl-[1,3,4]oxadiazol-2-yl)-amide], the concentration for half-maximal inhibition (IC50) is 11 to 100 nM.

With `O=C(Nc1nc(-c2ccccn2)cs1)N1CCN(C(=O)c2cccc(F)c2)CC1` [Compound 73, 4-(3-Fluoro-benzoyl)-piperazine-1-carboxylic acid (4-pyridin-2-yl-thiazol-2-yl)-amide], the IC50 is 11 to 100 nM.

Regarding `O=C(Nc1nc(-c2cccnc2)cs1)N1CCN(C(=O)c2cccc(F)c2)CC1` [Compound 74, 4-(3-Fluoro-benzoyl)-piperazine-1-carboxylic acid (4-pyridin-3-yl-thiazol-2-yl)-amide], the half-maximal inhibitory concentration (IC50) is 11 to 100 nM. Turning to `O=C(Nc1nc(-c2ccncc2)cs1)N1CCN(C(=O)c2cccc(F)c2)CC1` [Compound 75, 4-(3-Fluoro-benzoyl)-piperazine-1-carboxylic acid (4-pyridin-4-yl-thiazol-2-yl)-amide], the half-maximal inhibitory concentration (IC50) fell in the range of 101 to 1000 nM.

As to `Cc1nc(-c2cccc(NC(=O)N3CCN(C(=O)c4cccc(F)c4)CC3)c2)cs1` [Compound 77, 4-(3-Fluoro-benzoyl)-piperazine-1-carboxylic acid [3-(2-methyl-thiazol-4-yl)-phenyl]-amide], the IC50 is 101 to 1000 nM. Regarding `Cc1nccc(-c2cccc(NC(=O)N3CCN(C(=O)c4cccc(F)c4)CC3)c2)n1` [Compound 78, 4-(3-Fluoro-benzoyl)-piperazine-1-carboxylic acid [3-(2-methyl-pyrimidin-4-yl)-phenyl]-amide], the IC50 fell in the range of 11 to 100 nM.

Turning to `Cc1cc2nc(NC(=O)N3CCN(C(=O)c4cccc(F)c4)CC3)sc2cc1C` [Compound 79, 4-(3-Fluoro-benzoyl)-piperazine-1-carboxylic acid (5,6-dimethyl-benzothiazol-2-yl)-amide], the IC50 was 1 to 10 nM. In the case of `Cc1ccc2nc(NC(=O)N3CCN(C(=O)c4cccc(F)c4)CC3)sc2c1` [Compound 80, 4-(3-Fluoro-benzoyl)-piperazine-1-carboxylic acid (6-methyl-benzothiazol-2-yl)-amide], the IC50 was 1 to 10 nM.

These data come from patent US20100234377A1 (priority 2007, published 2010).
